The values that follow come from patent US20080207632A1, “PROTEIN KINASE INHIBITORS” (SUPERGEN, INC., priority 2006, published 2008).

Format in all cases: cell-based
One assay concerns HT-29 (colon). Nature of the assay: in vitro cytotoxicity assay (Cell-Titer-Glo), HT-29. As to conditions: Homo sapiens. The procedure:
(§1) To evaluate cell killing of cancer cell lines, an in vitro cytotoxicity assay was performed. The tumor cell lines used were purchased from the American Type Culture Collection, and are identified as follows: Panc-1 (pancreas), MiaPaCa-2 (pancreas), MCF-7 (breast), HT-29 (colon), U2-OS (osteosarcoma), OVCAR-3 (ovary), HepG2 (hepatocellular carcinoma) and TT (medullary thyroid). The assay utilized the Cell-Titer-Glo Non-Radioactive Cell Proliferation Assay (Promega Corp., Madison, Wis.). First the cells were cultured in RPMI 1640 medium (Cat# 21870-076, Invitrogen Corporation) supplemented with 300 mg/L L-glutamine, 100 units/ml penicillin, 100 μg/ml streptomycin and 10% fetal bovine serum. All the cell lines were incubated in a humidified incubator at 37° C. with 5% CO2 atmosphere.
(§2) Cells were plated at a density of 2000 to 10000 cells per well, depending on their growth rate, in 0.09 mL medium on day 0 in 96-well Microlite TCT microtiter plates (7418, Thermo Labsystems, Franklin, Mass.). On day 1, 10 μL of serial dilutions of the individual compounds were added to the plates in replicates of 3. After incubation for 4 days at 37° C. in a humidified incubator, the cells were lysed in the Cell-Titer-Glo reagent, which also contains luciferase enzyme. The luciferase reaction utilizes ATP released from lysed cells to produce light, the intensity of which is linearly related to the amount of ATP. Thus, the amount of light produced is a reflection of the number of cells remaining in the well after drug treatment. This luminescence was measured using a Luminoskan luminometer (Thermo Electron Corp., Vantaa, Finland) Data were expressed as the percentage of survival of control cells calculated from the luminescence corrected for background. The surviving percent of cells was determined by dividing the mean luminescence values of the treated wells by the mean luminescence values of the control and multiplying by 100.
as §1, with “Briefly,” for “To evaluate cell killing of cancer cell lines, an in vitro cytotoxicity assay was performed. The”, “thyroid), PC-3 (prostate) and A549 (lung).” for “thyroid).”
as §1, with “carcinoma), PC-3 (prostate),” for “carcinoma)”, “A549 (lung).” for “TT (medullary thyroid).”
(§3) Cells were plated at a density of 2000 to 10000 cells per well, depending on their growth rate, in 0.09 mL medium on day 0 in 96-well Microlite TCT microtiter plates (#7418, Thermo Labsystems, Franklin, Mass.). On day 1, 10 μL of serial dilutions of the individual compounds were added to the plates in replicates of 3. After incubation for 4 days at 37° C. in a humidified incubator, the cells were lysed in the Cell-Titer-Glo reagent, which also contains luciferase enzyme. […]

For a further assay, the system named is U2-OS (osteosarcoma). Description: in vitro cytotoxicity assay (Cell-Titer-Glo), U2-OS. Conditions: Homo sapiens, U2OS. The procedure:
as §1, §2
as §1, with “Briefly,” for “To evaluate cell killing of cancer cell lines, an in vitro cytotoxicity assay was performed. The”, “thyroid), PC-3 (prostate) and A549 (lung).” for “thyroid).”
as §1, with “carcinoma), PC-3 (prostate),” for “carcinoma)”, “A549 (lung).” for “TT (medullary thyroid).”
as §3

In assay [1] the test system is HepG2 (hepatocellular carcinoma). Nature of the assay: in vitro cytotoxicity assay (Cell-Titer-Glo), HepG2. Conditions: Homo sapiens, Table 10, 96 hours, read-out: IC50 HepG2 (inhibit cell growth to 50% of untreated).
In the next assay the test system is TT (medullary thyroid). Nature of the assay: in vitro cytotoxicity assay (Cell-Titer-Glo), TT. The procedure: as §1, §2
as §1, with “Briefly,” for “To evaluate cell killing of cancer cell lines, an in vitro cytotoxicity assay was performed. The”, “thyroid), PC-3 (prostate) and A549 (lung).” for “thyroid).”
Cell culture-based assays can be used to evaluate the ability of compounds of the invention to inhibit one or more cellular activities, such as cancer cell growth and/or survival. Numerous cancer cell lines can be obtained from the American Type Culture Collection (ATCC) and other sources. Briefly, cells are seeded into 96-well, tissue-culture treated, opaque white plates (Thermo Electron, Vantaa, Finland), at between 5000 and 10000 cells per well, depending on the speed of cell proliferation, in 100 μl of appropriate growth medium (determined by the ATCC). Cells are then exposed to the appropriate concentration of drug or an equal amount of DMSO (drug diluent) and allowed to grow in its presence for 96 hours. Following this, 100 μl of Cell-Titer-Glo reagent (Promega, Inc., Madison, Wis.) is added to each well. Plates are then shaken for 2 minutes at room temperature to allow for cell lysis and incubated for 10 minutes to stabilize the luminescent signal. Similar to the Kinase-Glo assay reagent from Promega, this reagent contains both luciferase enzyme and its substrate luciferin. Luciferase, activated by ATP in the cell lysate, catalyzes the conversion of luciferin to oxyluciferin, a reaction which produces light. […]

Another assay has as its system Panc-1 (pancreas). Nature of the assay: in vitro cytotoxicity assay (Cell-Titer-Glo), Panc-1. As to conditions: Homo sapiens. As to the method:
as §1, §2
as §1, with “Briefly,” for “To evaluate cell killing of cancer cell lines, an in vitro cytotoxicity assay was performed. The”, “thyroid), PC-3 (prostate) and A549 (lung).” for “thyroid).”
as §1, with “carcinoma), PC-3 (prostate),” for “carcinoma)”, “A549 (lung).” for “TT (medullary thyroid).”
as §3

[2] abbreviates: HT-29, 96 h, Example 20, 4 days, read-out: Cell-based IC50 values HT-29.
Setting [3] is: 96 h, Example 20, 4 days, read-out: Cell-based IC50 values U2-Os.
Setting [4] is: 96 h, Example 20, 4 days, read-out: Cell-based IC50 values TT.
Where [5] appears, read: PANC-1, 96 h, Example 20, 4 days, read-out: Cell-based IC50 values Panc-1.
Setting [6] is: HT-29, 96 h, Table 9, 4 days, read-out: IC50 HT-29.
The mark [7] stands for this setting: 96 h, Table 9, 4 days, read-out: IC50 U2-OS.
[8] abbreviates: PANC-1, 96 h, Table 9, 4 days, read-out: IC50 Panc-1.

Like-named read-outs stand apart in the source and are kept apart here.

Regarding `CC(=O)NS(=O)(=O)c1ccc(NC(=S)N2CCN(c3ncnc4[nH]c5cc(C(F)(F)F)c(Cl)cc5c34)CC2)cc1` [Compound 1-1, 4-(6-Chloro-7-trifluoromethyl-9H-pyrimido[4,5-b]indol-4-yl)-piperazine-1-carbothioic acid (4-acetylsulfamoyl-phenyl)-amide], the IC50 (usually the point on the concentration scale where inhibition reaches its midpoint) in the assay with HT-29 (colon) (HT-29, 96 h, Example 18, 4 days, read-out: calculated IC50 HT-29) is 14.7 µM; in the assay with HT-29 (colon) (setting [2]), 5.01 µM; in the assay on HT-29 (colon) (HT-29, Table 10, 96 hours, read-out: IC50 HT-29 (inhibit cell growth to 50% of untreated)) it was 14.7 µM; in the assay with U2-OS (osteosarcoma) (96 h, Example 18, 4 days, read-out: calculated IC50 U2-OS), 25.9 µM; with U2-OS (osteosarcoma) (setting [3]) it was 13.2 µM; in the assay on U2-OS (osteosarcoma) (Table 10, 96 hours, read-out: IC50 U2-Os (inhibit cell growth to 50% of untreated)), 25.9 µM. For the same compound, the IC50 in assay [1] is 7.83 µM; with TT (medullary thyroid) (96 h, Example 18, 4 days, read-out: calculated IC50 TT), 51.7 µM; in the assay on TT (medullary thyroid) (setting [4]), 11 µM; in the assay on TT (medullary thyroid) (Table 10, 96 hours, read-out: IC50 TT (inhibit cell growth to 50% of untreated)), 51.7 µM; in the assay on Panc-1 (pancreas) (PANC-1, 96 h, Example 18, 4 days, read-out: calculated IC50 Panc-1), 40.7 µM; in the assay with Panc-1 (pancreas) (setting [5]), 37.5 µM. Further, the IC50 in the assay on Panc-1 (pancreas) (PANC-1, Table 10, 96 hours, read-out: IC50 Panc1 (inhibit cell growth to 50% of untreated)) worked out at 40.7 µM.

As to `COc1cc2[nH]c3ncnc(N4CCN(C(=S)Nc5ccc(S(=O)(=O)NC(C)=O)cc5)CC4)c3c2cc1OC` [Compound 1-2, 4-(6,7-Dimethoxy-9H-pyrimido[4,5-b]indol-4-yl)-piperazine-1-carbothioic acid (4-acetylsulfamoyl-phenyl)-amide], the IC50 with HT-29 (colon) (setting [2]) was found to be 93.6 µM; with U2-OS (osteosarcoma) (setting [3]), 71.7 µM; in the assay with TT (medullary thyroid) (setting [4]), 64 µM; in the assay on Panc-1 (pancreas) (setting [5]), 198 µM.

On to `CC(=O)NS(=O)(=O)c1ccc(NC(=S)N2CCN(c3ncnc4[nH]c5ccc(Cl)cc5c34)CC2)cc1` [Compound 1-3, 4-(6-chloro-9H-pyrimido[4,5-b]indol-4-yl)-piperazine-1-carbothioic acid (4-acetylsulfamoyl-phenyl)-amide], for which the IC50 was 29.8 µM with HT-29 (colon) (setting [2]), 20.8 µM in the assay with U2-OS (osteosarcoma) (setting [3]), 13.2 µM with TT (medullary thyroid) (setting [4]) and 35.8 µM with Panc-1 (pancreas) (setting [5]).

In the case of `CC(=O)NS(=O)(=O)c1ccc(NC(=S)N2CCN(c3ncnc4[nH]c5cc(F)ccc5c34)CC2)cc1` [Compound 1-4], the IC50 in the assay with HT-29 (colon) (setting [2]) is 103 µM; in the assay with U2-OS (osteosarcoma) (setting [3]) it was 36.3 µM; in the assay on Panc-1 (pancreas) (setting [5]), 136 µM.

Take `COc1cc2c(cc1O)[nH]c1ncnc(N3CCN(C(=S)Nc4ccc(S(=O)(=O)NC(C)=O)cc4)CC3)c12` [Compound 1-8]: the half-inhibitory concentration (IC50) with HT-29 (colon) (setting [2]) is 27.3 µM.

As for `COc1cc2[nH]c3ncnc(N4CCN(C(=S)Nc5ccc(S(=O)(=O)N6CCOCC6)cc5)CC4)c3c2cc1OC` [Compound 1-26], the IC50 in the assay with HT-29 (colon) (setting [2]) is 176 µM; with U2-OS (osteosarcoma) (setting [3]), 6.95 µM; in the assay with Panc-1 (pancreas) (setting [5]), 139 µM.

In the case of `COc1cc2[nH]c3ncnc(N4CCN(C(=S)Nc5ccc(NC(=O)C6CC6)cc5)CC4)c3c2cc1OC` [Compound 1-34], the IC50 was 138 µM in the assay on HT-29 (colon) (setting [2]), 27 µM in the assay with U2-OS (osteosarcoma) (setting [3]), 99.1 µM with TT (medullary thyroid) (setting [4]) and 125 µM in the assay with Panc-1 (pancreas) (setting [5]).

With `COc1cc2[nH]c3ncnc(N4CCN(C(=S)Nc5ccc(NC(C)=O)cc5)CC4)c3c2cc1OC` [Compound 1-42], the IC50 in the assay with HT-29 (colon) (setting [2]) came out at 140 µM; with U2-OS (osteosarcoma) (setting [3]) it was 41.3 µM; with TT (medullary thyroid) (setting [4]) it was 129 µM; in the assay with Panc-1 (pancreas) (setting [5]), 216 µM.

With `COc1cc2[nH]c3ncnc(N4CCN(C(=S)Nc5ccc(S(N)(=O)=O)cc5)CC4)c3c2cc1OC` [Compound 1-107], the IC50 is > 300 µM in the assay with HT-29 (colon) (setting [2]), 8.7 µM in the assay on U2-OS (osteosarcoma) (setting [3]), 147 µM in the assay with TT (medullary thyroid) (setting [4]) and 300 µM in the assay with Panc-1 (pancreas) (setting [5]).

Regarding `COc1cc2[nH]c3ncnc(N4CCN(C(=S)Nc5ccc(S(C)(=O)=O)cc5)CC4)c3c2cc1OC` [Compound 1-115], the IC50 with HT-29 (colon) (setting [2]) was 97.4 µM; with U2-OS (osteosarcoma) (setting [3]), 50.4 µM; in the assay on TT (medullary thyroid) (setting [4]) it was 38.6 µM; in the assay on Panc-1 (pancreas) (setting [5]) it was 49.8 µM.

Take `COc1cc2[nH]c3ncnc(N4CCN(C(=S)Nc5ccc(S(=O)(=O)Nc6ccc(F)cc6)cc5)CC4)c3c2cc1OC` [Compound 2-3, 4-(6,7-dimethoxy-9H-pyrimido[4,5-b]indol-4-yl)-N-(4-(N-(4-fluorophenyl)sulfamoyl)phenyl)piperazine-1-carbothioamide]: the IC50 in the assay on HT-29 (colon) (setting [6]) was found to be 6.42 µM; in the assay with U2-OS (osteosarcoma) (setting [7]) it was 8.18 µM; in the assay with Panc-1 (pancreas) (setting [8]), 22.3 µM.

For the compound `COc1ccc2c(c1)[nH]c1ncnc(N3CCN(C(=S)Nc4ccc(S(=O)(=O)Nc5ccc(F)cc5)cc4)CC3)c12` [Compound 2-5, 4-(7-methoxy-9H-pyrimido[4,5-b]indol-4-yl)-N-(4-(N-(4-fluorophenyl)sulfamoyl)phenyl)piperazine-1-carbothioamide], the IC50 with HT-29 (colon) (setting [6]) is 6.93 µM; with U2-OS (osteosarcoma) (setting [7]), 8.49 µM; with Panc-1 (pancreas) (setting [8]), 10.7 µM.

In the case of `Cc1ccc(NS(=O)(=O)c2ccc(NC(=S)N3CCN(c4ncnc5[nH]c6cc(Cl)c(N7CCOCC7)cc6c45)CC3)cc2)cc1` [Compound 2-9, 4-(7-chloro-6-morpholino-9H-pyrimido[4,5-b]indol-4-yl)-N-(4-(N-tolylsulfamoyl)phenyl)piperazine-1-carbothioamide], the results for the concentration for half-maximal inhibition (IC50) in the assay with HT-29 (colon) (setting [6]), in the assay on U2-OS (osteosarcoma) (setting [7]) and with Panc-1 (pancreas) (setting [8]) were 8 µM, 8.56 µM and 85.2 µM, respectively.
